# Test results taken from publication PMC11466185, “Mechanisms and efficacy of small molecule latency-promoting agents to inhibit HIV reactivation ex vivo” (JCI Insight, 2024).
# “And” between values parts separate entries of the source, which are not always exact repeats. Equal entries are not always repeated. Where two headings read alike, the source gives them in different places.
# Key:
# [1] = system: HIV transcripts (TAR, LLTR, Pol, PolyA, TatRev); assay: Latency reversal assay: cell-associated HIV transcripts (RT-ddPCR) 24 hours after anti-CD3/CD28 activation of PBMCs from ART-suppressed PWH; type: cell-based; design: Elongated (LLTR) HIV transcripts, median relative to activated DMSO, initial screening / Midtranscribed (Pol) HIV transcripts, median relative to activated DMSO, initial screening / Multiply spliced (TatRev) HIV transcripts, median relative to activated DMSO, initial screening: concentration or dose not given beside the values; details: for Effect on HIV transcripts in the initial drug screen (in words) / Multiply spliced (TatRev) HIV transcripts, median relative to activated DMSO, initial screening / Completed (PolyA) HIV transcripts, median relative to activated DMSO, initial screening: initial screening, 2 participants; for Effect on HIV transcripts in the initial drug screen (in words): 24 hours after activation; for Multiply spliced (TatRev) HIV transcripts, median relative to activated DMSO, initial screening / Completed (PolyA) HIV transcripts, median relative to activated DMSO, initial screening / Multiply spliced HIV transcripts (TatRev) (Fig 1B): 24 hours; for Multiply spliced (TatRev) HIV transcripts, median relative to activated DMSO, initial screening: Figure 1B; for Multiply spliced (TatRev) HIV transcripts, median relative to activated DMSO, initial screening / Completed (PolyA) HIV transcripts, median relative to activated DMSO, initial screening: Supplemental Figure 2; for mrna remaining at 0.1 µM: 100nM
# Method: We selected 26 small molecules targeting pathways implicated in HIV transcription or the blocks to HIV transcription underlying latency (Supplemental Table 1). […] Initial screening of all drugs was performed in freshly isolated PBMCs from 2 ART-suppressed individuals (Figure 1 and Supplemental Figure 2). PBMCs were cultured in the presence of individual drugs in DMSO or DMSO alone as a control, subsequently activated (anti-CD3/CD28), and harvested after 24 hours. […] The progression through different blocks to HIV transcription was quantified by measuring the levels of initiated (TAR), 5′ elongated (LLTR), midtranscribed/unspliced (Pol), completed (PolyA), and multiply spliced (TatRev) HIV transcripts. The levels of those HIV transcripts were normalized to 1 μg of total cellular RNA (to normalize for the effect of the drug on global cellular transcription) and expressed as a percentage of the activated DMSO control.
# (§1) Figure 1 Screening of candidate LPAs by measuring the change in multiply spliced HIV transcripts after activation. Each drug was tested in PBMCs from 2 ART-suppressed study participants (denoted in the legend by varying symbol shapes). PBMCs were aliquoted into wells at 6 × 10^6 cells/well. After activation, the cells were cultured with antiretrovirals in the presence of individual drugs in DMSO or DMSO alone as control. All conditions were tested in the presence of CD3/28 T cell–activating beads, except for the unactivated DMSO condition. (A) After 24 hours, the viability was measured by trypan blue staining and then normalized to the levels of the activated DMSO (% of activated DMSO). Bars indicate medians. (B) Total cellular RNA was extracted, and the levels of multiply spliced HIV transcripts (TatRev) were measured by RT-ddPCR, normalized to 1 μg of total cellular RNA, and expressed as a percentage of the activated DMSO control (% of activated DMSO). RT-dd, reverse transcription digital droplet; vRNA, viral RNA; HAT, histone acetyltransferase.
# The ability of our candidate LPAs to inhibit HIV transcriptional progression after activation was examined in PBMCs from a minimum of 7 PWH per drug tested (Figure 3). PBMCs were cultured in the presence of individual drugs in DMSO or in DMSO alone as a control, subsequently activated (anti-CD3/CD28), and harvested after 24 hours.
# Each drug was tested in PBMCs from 7 ART-suppressed study participants. The PBMCs were aliquoted into wells at 6 × 10^6 cells/well. After activation, the cells were cultured with antiretrovirals in the presence of individual drugs in DMSO or DMSO alone as control. All conditions were tested in the presence of CD3/28 T cell–activating beads, except for the unactivated DMSO condition. After 24 hours, total RNA was extracted, and the progression through different stages of HIV transcription was quantified by measuring the levels of initiated (TAR), 5′ elongated (LLTR), midtranscribed/unspliced (Pol), completed (PolyA), and multiply spliced (TatRev) HIV transcripts. (A) The levels of all HIV transcripts were normalized to 1 μg of total cellular RNA and expressed as a percentage of the activated DMSO control (% of activated DMSO). Medians are shown as well as the individual values per study participant in different colors. (B–D) The effect of each drug on HIV transcriptional progression after activation was analyzed by the ratio of one HIV transcript to another. Ratios are independent of HIV infection frequency or normalization to cell numbers. Shown are the proportion of (B) all HIV transcripts that were elongated (LLTR/TAR), (C) elongated HIV transcripts that were completed spliced (PolyA/LLTR), and (D) completed transcripts that were multiply spliced (TatRev/PolyA).
# [2] = system: PBMCs; assay: Cell viability by trypan blue staining after 24 hours; type: cell-based, human
# Method: as §1
# For quantification of cell-associated HIV transcripts, PBMCs were harvested either after 24 hours or after 6 days. The cell viabilities were measured by trypan blue staining; then the cells were pelleted by centrifuging at 300g for 6 minutes and stored at –80°C. For quantification of virion-associated HIV RNA, cell culture supernatant was collected from 6 × 10^6 PBMCs that were treated and activated for 6 days as described above. Residual cells and cellular debris were subsequently removed from the supernatant by differential centrifugation (300g for 6 minutes, then 20,000g for 10 minutes), and the supernatant was stored at –80°C.
# [3] = 10μM, 24 h after αCD3/28 activation, each column one participant
Structure (SMILES),Effect on HIV transcripts in the initial drug screen (in words) [1],Viability (Fig 1A) ([2]; study participant 150a),Viability (Fig 1A) ([2]; study participant 152),further results
C[C@H]1O[C@@H](O[C@H]2[C@@H](O)C[C@H](O[C@H]3[C@@H](O)C[C@H](O[C@H]4CC[C@@]5(C)[C@H](CC[C@@H]6[C@@H]5C[C@@H](O)[C@]5(C)[C@@H](C7=CC(=O)OC7)CC[C@]65O)C4)O[C@@H]3C)O[C@@H]2C)C[C@H](O)[C@@H]1O [digoxin],did not observe decreases,98.44 % of activated DMSO,105.27 % of activated DMSO,"mrna remaining at 0.0025 µM ([1]; Human immunodeficiency virus 1, PBMC, 24 h, 2.5nM, 24 h after αCD3/28 activation, each column one participant, read-out: PolyA HIV transcripts (DMSO+αCD3/28 = 100)): 87%"
CC(=O)Oc1ccccc1C(=O)O [aspirin],did not observe much reduction,99.56 % of activated DMSO,95.5 % of activated DMSO,
COc1cc(F)ccc1-c1ncnc(Nc2cccc(C[S@](C)(=N)=O)c2)n1 [atuveciclib],,108.3 % of activated DMSO,95.7 % of activated DMSO,"Multiply spliced (TatRev) HIV transcripts, median relative to activated DMSO, initial screening [1]: 46%"
Nc1ccc(O)c(C(=O)O)c1 [mesalamine],did not observe any reduction,102.78 % of activated DMSO,98.77 % of activated DMSO,
Cn1cc(C2=C(c3cn(C4CCN(Cc5ccccn5)CC4)c4ccccc34)C(=O)NC2=O)c2ccccc21 [enzastaurin],,100.98 % of activated DMSO,98.98 % of activated DMSO,
CN1CCN(c2nc(C3=C(c4c[nH]c5ccccc45)C(=O)NC3=O)c3ccccc3n2)CC1 [sotrastaurin],,103.88 % of activated DMSO,98.33 % of activated DMSO,"mrna remaining at 0.1 µM ([1]; Human immunodeficiency virus 1, PBMC, 24 h, 24 h after αCD3/28 activation, each column one participant, read-out: LLTR HIV transcripts (DMSO+αCD3/28 = 100)): 99.4%; mrna remaining at 0.1 µM ([1]; Human immunodeficiency virus 1, PBMC, 24 h, 24 h after αCD3/28 activation, each column one participant, read-out: Pol HIV transcripts (DMSO+αCD3/28 = 100)): 51.5%; mrna remaining at 0.1 µM ([1]; Human immunodeficiency virus 1, PBMC, 24 h, 24 h after αCD3/28 activation, each column one participant, read-out: PolyA HIV transcripts (DMSO+αCD3/28 = 100)): 39.3%; Completed (PolyA) HIV transcripts, median relative to activated DMSO, initial screening [1]: 41%"
Nc1nc2nn[nH]c2c(=O)[nH]1 [8-azaguanine],did not observe decreases,106.88 % of activated DMSO,98.65 % of activated DMSO,"Multiply spliced (TatRev) HIV transcripts, median relative to activated DMSO, initial screening [1]: increase in multiply spliced transcripts"
CCCCCCCCCCCCCCC=C(C(=O)OCC)C(=O)OCC [SPV-106],did not observe any reduction,103.1 % of activated DMSO,97.61 % of activated DMSO,"LLTR HIV transcripts (DMSO+αCD3/28 = 100) [1, 3]: 123.81 and 93.28; Pol HIV transcripts (DMSO+αCD3/28 = 100) [1, 3]: 71.05 and 12.29; PolyA HIV transcripts (DMSO+αCD3/28 = 100) [1, 3]: 64.82 and 38.96; TatRev HIV transcripts (DMSO+αCD3/28 = 100) [1, 3]: 60.34 and 263.16; Multiply spliced HIV transcripts (TatRev) (Fig 1B) ([1]; study participant 150a): 60.34 % of activated DMSO; Multiply spliced HIV transcripts (TatRev) (Fig 1B) ([1]; study participant 152): 263.16 % of activated DMSO"
Nc1ncnc2c1ncn2[C@@H]1O[C@H](CO)C[C@H]1O [cordycepin],did not observe any reduction,101.9 % of activated DMSO,92.02 % of activated DMSO,
Oc1ccc(/C=C/c2cc(O)cc(O)c2)cc1 [resveratrol],,102.48 % of activated DMSO,91.76 % of activated DMSO,
CN[C@@H]1C[C@H]2O[C@@](C)([C@@H]1OC)n1c3ccccc3c3c4c(c5c6ccccc6n2c5c31)C(=O)NC4 [staurosporine],,109.29 % of activated DMSO,100.37 % of activated DMSO,"Completed (PolyA) HIV transcripts, median relative to activated DMSO, initial screening [1]: 41%"
CC(=O)S[C@@H]1CC2=CC(=O)CC[C@]2(C)[C@H]2CC[C@@]3(C)[C@@H](CC[C@@]34CCC(=O)O4)[C@H]12 [spironolactone],little reduction,102.53 % of activated DMSO,102.65 % of activated DMSO,
